Laboratory results taken from PubChem BioAssay AID2060625 (Molecular Pharmacology Branch, DTP, NCI, 2025).
Several values for one entry are separate records, joined by “and”; a condition that tells them apart may be missing. Identical values can stand only once.

System: 186277-243-T-J2-PDC spheroids with HUVEC/MSC, viability
Test: Anticancer human tumor 186277-243-T-J2-PDC patient-derived colon adenocarcinoma cell line growth inhibition [CLK]
Details: for viability, T/C: stronger effect = lower value
Source text: A high-throughput screen of multi-cell type tumor spheroids was designed to identify active combinations of […] and targeted small molecules. Complex spheroids include a stromal component modeled by human endothelial cells (HUVEC) and fibroblasts modeled by human mesenchymal stem cells (MSCs). The concentration ranges selected for each drug and investigational agent were based upon clinically achievable concentrations if the clinical Cmax of the agent was known.
Compounds. The drugs and investigational agents: cirtuvivint (SM08502; NSC835563), CC-671 (NSC850746), vemurafenib (NSC761431), tapotoclax (NSC804041), sotorasib (NSC818433), adagrasib (NSC831453), MRTX-1133 (NSC836407), BAY2416964 (NSC825713), copanlisib (NSC816437), inavolisib (NSC800729), abemaciclib (NSC768073), osimertinib (NSC779217), entinostat (NSC756642), eltanexor (KPT-8602, NSC794443), venetoclax (NSC766270), ceralasertib (NSC777638), bortezomib (NSC756655), olaparib (NSC753686), talazoparib (NSC767125), alisertib (NSC759677), peposertib (NSC802822), gemcitabine (NSC613327), 5-fluorouracil (NSC19893), SN-38 (NSC673596), oxaliplatin (NSC266046), paclitaxel (NSC125973), and doxorubicin (NSC123127), were obtained from the National Cancer Institute (NCI) Developmental Therapeutics Program Chemical Repository. The FDA-approved anticancer drug set is available from the Developmental Therapeutics Program at https://dtp.cancer.gov/organization/dscb/obtaining/available plates.htm. […] The stock solutions were prepared in dimethyl sulfoxide (DMSO, Sigma-Aldrich, St. Louis, MO, cat. D2650), except for the platinum complexes which were prepared in saline (Quality Biological, Gaithersburg, MD, cat. 114-055-101), at 800-fold the tested concentration and stored at -70 degrees C prior to their use. All drugs and investigational agents were tested over a range starting from a high concentration at or near the clinical Cmax and decreasing in half-log increments. If the clinical Cmax for an agent had not been determined, the highest concentration tested was 10 microM.
Cell Culture. All cells were maintained in an incubator at 37 degrees C and 5% CO2 with 95% humidity. The PDC lines were cultured according to standard operating procedures established by the NCI PDMR. Briefly, all PDCs were thawed and cultured in Matrigel-coated flasks prepared with a working solution of 1X Ham's F-12 nutrient mix, without supplementation (Invitrogen, Waltham, MA, cat. 11765054), 100 U/mL penicillin-streptomycin (Invitrogen, cat. 15140122), and 2.5% Matrigel (Corning Inc., Corning, NY, cat. 354248) for the first three passages. The 947758-054-R-J2-PDC line was cultured in 6B/Colon 1A media, which includes advanced DMEM/F-12 (Thermo Fisher Scientific, cat. 12634028), 10 mM HEPES (Thermo Fisher Scientific, cat. 15630080), 1X GlutaMAX supplement (Thermo Fisher Scientific, cat. 35050061), 0.1 mg/mL primocin (InvivoGen, cat. ant-pm-2), 10% defined fetal bovine serum, heat inactivated (HyClone Laboratories Inc., cat. SH30070.03HI), 1.25 mM N-Acetyl-L-cysteine (Sigma-Aldrich, cat. A9165), 10 mM nicotinamide (Sigma-Aldrich, cat. N0636), 1X B-27 supplement (Thermo Fisher Scientific, cat. 17504044), 1X N-2 supplement (Thermo Fisher Scientific, cat. 17502048), and 10 microM Y-27632 dihydrochloride (Tocris Bioscience, cat. 1254). The 876862-298-R-J1-PDC was cultured in 6E media, which includes all 6B/Colon 1A media components plus 50% L-WRN conditioned media (ATCC, cat. CRL-3276), 50 ng/mL recombinant human EGF recombinant protein (hEGF; Thermo Fisher Scientific, cat. PHG0311), 10 ng/mL recombinant human fibroblast growth factor 10 (hGFG-10; PeproTech, cat. 100-26), 1 ng/mL recombinant human fibroblast growth factor 2 (hFGF-2; PeproTech, cat. 100-18B), and 1 µM prostaglandin E2 (PGE2; Tocris, cat. 2296). The 227483-062-R1-J1-PDC line was cultured in Panc media, containing all 6E components except hFGF-2, with the addition of 500 nM SB-431542 (Selleckchem, cat. S1067) and 10 nM gastrin (Tocris, cat. 3006). […]
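Also: compound exposure lasted seven days before readout.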
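For viability, T/C in this document: 100% = DMSO vehicle control wells.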

`CC1COCCN1c1cc(C2(S(C)(=N)=O)CC2)nc(-c2ccnc3[nH]ccc23)n1` (stereo unspecified) was tested, and the viability, T/C (compound 0.0316 µM) was 103% and 82.6%, the viability, T/C (compound 0.1 µM) was 85.5% and 88% and the viability, T/C (compound 0.316 µM) was 96.9% and 95%. The viability, T/C (compound 1 µM) was 122% and 103%, the viability, T/C (compound 3.16 µM) was 41.2% and 34% and the viability, T/C (compound 10 µM) was 15% and 13.5%. For the same compound, the IC50 (curve of compound) was 2680 nM and 2310 nM.
With `COC1C=CCC(C)C(C)S(=O)(=O)NC(=O)c2ccc3c(c2)N(CC2CCC21)CC1(CCCc2cc(Cl)ccc21)CO3` (stereo unspecified) the viability, T/C (compound 0.0316 µM) was 83.5% and 117%, the viability, T/C (compound 0.1 µM) was 90% and 103% and the viability, T/C (compound 0.316 µM) was 88.2% and 101%. For the same compound, the viability, T/C (compound 1 µM) was 85.8% and 84.1%, the viability, T/C (compound 3.16 µM) was 82.9% and 69.2% and the viability, T/C (compound 10 µM) was 3.82% and 5.57%. For the same compound, the IC50 (curve of compound) was 5110 nM and 4150 nM.
`C#Cc1c(F)ccc2cc(O)cc(-c3ncc4c(N5CC6CCC(C5)N6)nc(OCC56CCCN5CC(F)C6)nc4c3F)c12` (stereo unspecified) + CN1CCN(c2cc(C(=O)Nc3cc4cc(-c5cnn(C)c5)ccc4cn3)ccn2)CC1 gave an IC50 (curve of first compound, second compound 0.0316 µM) of 891 nM, an IC50 (curve of first compound, second compound 0.1 µM) of 188 nM and an IC50 (curve of first compound, second compound 0.316 µM) of less than 31.6 nM. The IC50 (curve of first compound, second compound 1 µM) was less than 31.6 nM, the IC50 (curve of first compound, second compound 3.16 µM) was less than 31.6 nM and the IC50 (curve of first compound, second compound 10 µM) was less than 31.6 nM. The viability, T/C (second compound 0.0316 µM, first compound 0.0316 µM) was 110%, the viability, T/C (second compound 0.0316 µM, first compound 0.1 µM) was 88.2% and the viability, T/C (second compound 0.0316 µM, first compound 0.316 µM) was 76.2%. It also gave a viability, T/C (second compound 0.0316 µM, first compound 1 µM) of 44%, a viability, T/C (second compound 0.0316 µM, first compound 3.16 µM) of 29.4% and a viability, T/C (second compound 0.0316 µM, first compound 10 µM) of 15.2%. It also gave a viability, T/C (second compound 0.1 µM, first compound 0.0316 µM) of 73.7%, a viability, T/C (second compound 0.1 µM, first compound 0.1 µM) of 75.3% and a viability, T/C (second compound 0.1 µM, first compound 0.316 µM) of 29.7%. The viability, T/C (second compound 0.1 µM, first compound 1 µM) was 22.9%, the viability, T/C (second compound 0.1 µM, first compound 3.16 µM) was 16.3% and the viability, T/C (second compound 0.1 µM, first compound 10 µM) was 9.03%. For the same compound, the viability, T/C (second compound 0.316 µM, first compound 0.0316 µM) was 16%, the viability, T/C (second compound 0.316 µM, first compound 0.1 µM) was 11.7% and the viability, T/C (second compound 0.316 µM, first compound 0.316 µM) was 6.4%. The viability, T/C (second compound 0.316 µM, first compound 1 µM) was 4.52%, the viability, T/C (second compound 0.316 µM, first compound 3.16 µM) was 4.02% and the viability, T/C (second compound 0.316 µM, first compound 10 µM) was 2.36%. The viability, T/C (second compound 1 µM, first compound 0.0316 µM) was 0.29%, the viability, T/C (second compound 1 µM, first compound 0.1 µM) was 0.77% and the viability, T/C (second compound 1 µM, first compound 0.316 µM) was 0.35%. The viability, T/C (second compound 1 µM, first compound 1 µM) was 0.39%, the viability, T/C (second compound 1 µM, first compound 3.16 µM) was 0.43% and the viability, T/C (second compound 1 µM, first compound 10 µM) was 0.19%. It also gave a viability, T/C (second compound 3.16 µM, first compound 0.0316 µM) of 1.1%, a viability, T/C (second compound 3.16 µM, first compound 0.1 µM) of 0.65% and a viability, T/C (second compound 3.16 µM, first compound 0.316 µM) of 0.64%. The viability, T/C (second compound 3.16 µM, first compound 1 µM) was 1.1%, the viability, T/C (second compound 3.16 µM, first compound 3.16 µM) was 1.04% and the viability, T/C (second compound 3.16 µM, first compound 10 µM) was 0.26%. The viability, T/C (second compound 10 µM, first compound 0.0316 µM) was 0.72%, the viability, T/C (second compound 10 µM, first compound 0.1 µM) was 0.54% and the viability, T/C (second compound 10 µM, first compound 0.316 µM) was 0.53%. It also gave a viability, T/C (second compound 10 µM, first compound 1 µM) of 0.64%, a viability, T/C (second compound 10 µM, first compound 3.16 µM) of 1.33% and a viability, T/C (second compound 10 µM, first compound 10 µM) of 0.27%.
